Like-named read-outs stand apart in the source and are kept apart here.
Assays:
[1] = system: RPMI 8866 binding to VCAM-1; assay: VCAM cell adhesion assay, RPMI 8866 cells; format: cell-based; settings: Homo sapiens; RPMI 8866 cells to VCAM-1; read-out: Inhibition of cell adhesion (IC50)
Method: Jurkat J6 cells (human lymphoblast cell line) were grown as a suspension culture in RPMI 1640 supplemented with FCS (10%) and glutamine (2 mM). RPMI8866 cells (human B lymphoid cell line) were grown as a suspension culture in RPMI 1640 supplemented with FCS (10%) and glutamine (2 mM). RBL-2H3 cells (rat basophilic cell line) were cultured in Eagle's MEM plus Earles salts supplemented with 2 mM L-glutamine, 1 mM sodium pyruvate, 1× non-essential amino acids, 1 mM Na pyruvate 10% heat inactivated foetal calf serum.
Polystyrene 96-well microtitre plates were coated with IgG at a concentration of 0.05 mg/mL in bicarbonate buffer for 2 hours at 37° C. The solution was aspirated and the plates washed twice with PBS. The plates were then incubated overnight at 4° C. with a 1:4000 dilution of VCAM-1 of 3% BSA in PBS. Prior to use the VCAM-1 was aspirated and the plates washed twice with PBS.
J6 or RPMI cells (as required) were labelled with the fluorescent dye BCECF-AM (10 μM and 6×10^6 cells/mL) for 10 min at 37° C. before the excess was removed by centrifugation at 500 g for 5 min and the cells resuspended at a cell concentration of 1.2×10^7 cells/mL in HBSS. Equal volumes HBSS containing the compound of formula I (over concentration range 38.1 pM to 10 μM) and cells were added to the VCAM-1 coated plates. […] The plates were counted in a Wallac Viktor.

[2] = Toxicokinetics in 13-week topical ocular dog study; settings: in vivo, topical or ocular
Method: GW559090A was given to Beagle Dogs by topical ocular administration for 13 weeks. Animals were dosed six or twelve times per day, with one hour between doses. Treatment groups were: (1) vehicle (12 times a day), (2) 30 mg/mL/occasion given six times a day, (3) 50 mg/mL/occasion given six times a day, or (4) 50 mg/mL/occasion, given 12 times a day.
GW559090A was formulated as a stock solution in 25 mM phosphate buffer with 0.5% sodium chloride to provide a 50 mg/mL stock solution, which was used for administration to Groups 3 or 4, or further diluted with 25 mM phosphate buffer with 0.75% sodium chloride to provide a 30 mg/mL solution for administration to Group 2.
During the 13 week treatment period dogs received daily topical ocular doses of GW559090 or vehicle (12 times a day) at a constant dose volume of 0.06 mL (given 6 or 12 times a day, with one hour between doses). The test article formulation or vehicle was carefully dropped into the everted lower eyelid of the left eye from a suitable distance, to prevent contact of the positive displacement pipette with the eye. The lower and upper lids were then gently held together for approximately five seconds, to prevent loss of dose and aid even distribution across the external ocular surface. The un-dosed eye was not manipulated at any time and served as a within animal untreated control site.

Cc1ccccc1OCC(=O)N[C@@H](CC(C)C)C(=O)N[C@@H](Cc1ccc(OC(=O)N2CCC(C(N)=O)CC2)cc1)C(=O)O [GW559090, (2S)-3-[4-({[4-(Aminocarbonyl)-1-piperidinyl]carbonyl}oxy)phenyl]-2-[((2S)-4-methyl-2-{[2-(2-methylphenoxy)acetyl]amino}pentanoyl)amino]propanoic acid]
IC50 [1]: 4.81 nM | AUC(0-t) ([2]; both sexes, Beagle, 50 mg/mL/occasion, dogs, males and females combined, 50 mg/mL/occasion 12 times a day, Week 13, read-out: AUC0-1 exposure at NOAEL): 11.2 ng·h/mL | Estimated AUC0-24 ([2]; both sexes, Beagle, 50 mg/mL/occasion, dogs, males and females combined, 50 mg/mL/occasion 12 times a day, Week 13, read-out: Estimated AUC0-24 at NOAEL): 134 ng·h/mL | Cmax ([2]; both sexes, Beagle, dogs, males and females combined, 50 mg/mL/occasion 12 times a day, Week 13, read-out: Cmax at NOAEL): 28.7 ng/mL | Tmax ([2]; female, beagle, 30 mg/mL/occasion, female dogs, 30 mg/mL, 6 daily doses, Day 1): 30 min | AUC(0-t) ([2]; female, beagle, 30 mg/mL/occasion, female dogs, 30 mg/mL, 6 daily doses, Day 1, read-out: AUC0-1): 5.27 ng·h/mL | AUC(0-t) ([2]; female, beagle, 30 mg/mL/occasion, female dogs, 30 mg/mL, 6 daily doses, Day 1, read-out: AUC0-24): 31.6 ng·h/mL | Cmax ([2]; female, beagle, 30 mg/mL/occasion, female dogs, 30 mg/mL, 6 daily doses, Day 1, read-out: Cmax): 12.2 ng/mL | Tmax ([2]; female, beagle, 30 mg/mL/occasion, female dogs, 30 mg/mL, 6 daily doses, Week 4): 22.5 min | AUC(0-t) ([2]; female, beagle, 30 mg/mL/occasion, female dogs, 30 mg/mL, 6 daily doses, Week 4, read-out: AUC0-1): 4.28 ng·h/mL | AUC(0-t) ([2]; female, beagle, 30 mg/mL/occasion, female dogs, 30 mg/mL, 6 daily doses, Week 4, read-out: AUC0-24): 25.7 ng·h/mL | Cmax ([2]; female, beagle, 30 mg/mL/occasion, female dogs, 30 mg/mL, 6 daily doses, Week 4, read-out: Cmax): 9.34 ng/mL | Tmax ([2]; female, beagle, 30 mg/mL/occasion, female dogs, 30 mg/mL, 6 daily doses, Week 13): 15 min | AUC(0-t) ([2]; female, beagle, 30 mg/mL/occasion, female dogs, 30 mg/mL, 6 daily doses, Week 13, read-out: AUC0-1): 6.05 ng·h/mL | AUC(0-t) ([2]; female, beagle, 30 mg/mL/occasion, female dogs, 30 mg/mL, 6 daily doses, Week 13, read-out: AUC0-24): 36.3 ng·h/mL | Cmax ([2]; female, beagle, 30 mg/mL/occasion, female dogs, 30 mg/mL, 6 daily doses, Week 13, read-out: Cmax): 17.5 ng/mL | Tmax ([2]; female, beagle, 50 mg/mL/occasion, female dogs, 50 mg/mL, 6 daily doses, Day 1): 15 min | AUC(0-t) ([2]; female, beagle, 50 mg/mL/occasion, female dogs, 50 mg/mL, 6 daily doses, Day 1, read-out: AUC0-1): 8.79 ng·h/mL | AUC(0-t) ([2]; female, beagle, 50 mg/mL/occasion, female dogs, 50 mg/mL, 6 daily doses, Day 1, read-out: AUC0-24): 52.7 ng·h/mL | Cmax ([2]; female, beagle, 50 mg/mL/occasion, female dogs, 50 mg/mL, 6 daily doses, Day 1, read-out: Cmax): 17 ng/mL | Tmax ([2]; female, beagle, 50 mg/mL/occasion, female dogs, 50 mg/mL, 6 daily doses, Week 4): 15 min | AUC(0-t) ([2]; female, beagle, 50 mg/mL/occasion, female dogs, 50 mg/mL, 6 daily doses, Week 4, read-out: AUC0-1): 5.26 ng·h/mL | AUC(0-t) ([2]; female, beagle, 50 mg/mL/occasion, female dogs, 50 mg/mL, 6 daily doses, Week 4, read-out: AUC0-24): 31.6 ng·h/mL | Cmax ([2]; female, beagle, 50 mg/mL/occasion, female dogs, 50 mg/mL, 6 daily doses, Week 4, read-out: Cmax): 11.4 ng/mL | Tmax ([2]; female, beagle, 50 mg/mL/occasion, female dogs, 50 mg/mL, 6 daily doses, Week 13): 10 min | AUC(0-t) ([2]; female, beagle, 50 mg/mL/occasion, female dogs, 50 mg/mL, 6 daily doses, Week 13, read-out: AUC0-1): 6.64 ng·h/mL | AUC(0-t) ([2]; female, beagle, 50 mg/mL/occasion, female dogs, 50 mg/mL, 6 daily doses, Week 13, read-out: AUC0-24): 39.8 ng·h/mL | Cmax ([2]; female, beagle, 50 mg/mL/occasion, female dogs, 50 mg/mL, 6 daily doses, Week 13, read-out: Cmax): 17.9 ng/mL | Tmax ([2]; female, beagle, 50 mg/mL/occasion, female dogs, 50 mg/mL, 12 daily doses, Day 1): 30 min | AUC(0-t) ([2]; female, beagle, 50 mg/mL/occasion, female dogs, 50 mg/mL, 12 daily doses, Day 1, read-out: AUC0-1): 12.8 ng·h/mL | AUC(0-t) ([2]; female, beagle, 50 mg/mL/occasion, female dogs, 50 mg/mL, 12 daily doses, Day 1, read-out: AUC0-24): 153 ng·h/mL | Cmax ([2]; female, beagle, 50 mg/mL/occasion, female dogs, 50 mg/mL, 12 daily doses, Day 1, read-out: Cmax): 21.8 ng/mL | Tmax ([2]; female, beagle, 50 mg/mL/occasion, female dogs, 50 mg/mL, 12 daily doses, Week 4): 10 min | AUC(0-t) ([2]; female, beagle, 50 mg/mL/occasion, female dogs, 50 mg/mL, 12 daily doses, Week 4, read-out: AUC0-1): 6.77 ng·h/mL | AUC(0-t) ([2]; female, beagle, 50 mg/mL/occasion, female dogs, 50 mg/mL, 12 daily doses, Week 4, read-out: AUC0-24): 81.2 ng·h/mL | Cmax ([2]; female, beagle, 50 mg/mL/occasion, female dogs, 50 mg/mL, 12 daily doses, Week 4, read-out: Cmax): 14.5 ng/mL | Tmax ([2]; female, beagle, 50 mg/mL/occasion, female dogs, 50 mg/mL, 12 daily doses, Week 13): 15 min | AUC(0-t) ([2]; female, beagle, 50 mg/mL/occasion, female dogs, 50 mg/mL, 12 daily doses, Week 13, read-out: AUC0-1): 12.1 ng·h/mL
